According to patent publication US20140296143A1, “Angiotensin-(1-7) As A Chemoprevention Agent” (Wake Forest Innovations, priority 2008, published 2014):
pIC50: −log10 of the molar value. Where “and” joins values, the source holds several entries; their conditions need not be identical. Equal entries are not always repeated. Where two headings read alike, the source gives them in different places.

Assays:
[1] = tested on: ZR-75-1 breast cancer cells; conditions: U.S. Pat. No. 7,375,073; cited from earlier work
[2] = breast cancer patients, 30 minutes following subcutaneous injection, n=3, Rodgers 2005, cited from earlier work
[3] = tested on: SK-LU-1 cells; assay: Gene array hybridization (Human Cancer 1.2 Atlas cDNA Expression Array) in SK-LU-1 cells; assay type: cell-based; conditions: SK-LU-1, 1% serum, 100 nM
Description: Cells were incubated for 2 or 8 h, and total RNA was isolated using the Atlas Pure Total RNA Labeling System (Clontech Laboratories, Inc). The RNA concentration was quantified by UV spectroscopy and any degradation was assessed by ethidium bromide staining intensity of 28S and 18S ribosomal RNA following agarose gel electrophoresis. RNA isolated from seven different cell passages was pooled prior to gene array analysis to account for individual variability in gene regulation. Radiolabeled cDNA, prepared from the pooled RNAs using the Atlas system, was incubated with DNase to degrade any residual DNA and then hybridized to the Human Cancer 1.2 Atlas cDNA Expression Array (Clonetech Laboratories, Inc). This gene array set contains 1,176 characterized human cDNAs on positively-charged nylon membranes.

[4] = tested on: ZR-75-1 breast cancer cells; assay type: cell-based, human
Description: Unless otherwise stated, cells were grown in DMEM with 10% fetal bovine serum (FBS), […] in a humidified 37° C. incubator gassed with 5% CO2 and 95% room air. Cells were grown to subconfluence in either 24-well cluster plates or 100 mm dishes and made quiescent by treatment for 48 h with serum-depleted growth media, prior to the experiments outlined below to measure cell growth (^3H-thymidine incorporation), cell signaling or apoptosis.
[…] Subsequently, the cell monolayer was washed with cold phosphate-buffered saline (PBS; 50 mM NaPO4, 120 mM NaCl, pH=7.2). The adherent cells were precipitated with cold 10% TCA (4° C. for 30 min) and dissolved in 0.2% SDS in 0.1 N NaOH. Incorporated ^3H-thymidine was determined by liquid scintillation spectrometry, as previously described (Freeman, E. J. et al., Hypertension, 1996, 28:104-108). Growth inhibition was defined as a reduction in the amount of ^3H-thymidine incorporation as compared to the mitogen-stimulated controls.

[5] = tested on: VEGF mRNA; assay: VEGF mRNA in A549 cells by RT-PCR; assay type: cell-based, human; conditions: 100 nM, 2-4 hours
Description: RNA, isolated from cells or tissue, using the TRIzol reagent (GIBCO Invitrogen, Carlsbad, Calif.), was subjected to reverse transcriptase/real-time polymerase chain reaction as previously described (Tallant et al., Am. J. Physiol. Heart Circ. Physiol., 2005, 289:1560-1566). All reactions were performed in triplicate and 18S ribosomal RNA, amplified using the TaqMan Ribosomal RNA Control Kit (Applied Biosystems), served as an internal control. The results were quantified as Ct values, where Ct is defined as the threshold cycle of PCR at which amplified product is first detected, and defined as relative gene expression (the ratio of target/control). […] The RNA concentration was quantified by UV spectroscopy and any degradation assessed by ethidium bromide staining intensity of 28S and 18S ribosomal RNA following agarose gel electrophoresis. […] Following PCR, the amplification products were separated by polyacrylamide gel electrophoresis, visualized by autoradiography, and analyzed using the MCID imaging system.
For reverse-transcriptase real-time PCR, RNA was isolated from cells or tissue, using the TRIzol reagent (GIBCO Invitrogen Corp., Carlsbad, Calif.), as directed by the manufacturer. The RNA concentration and integrity were assessed using an Agilent 2100 Bioanalyzer with an RNA 6000 nano LabChip (Agilent Technologies, Palo Alto, Calif.). […]

[6] = tested on: cellular levels of cAMP; conditions: 1 μM, in the presence of 1 mM IBMX; n=3; U.S. Pat. No. 7,375,075; cited from earlier work
[7] = tested on: caspase-8; assay: Caspase-8 activity in A549 cell lysates, fluorometric assay; assay type: cell-based, human; conditions: A549 cells, 100 nM; maximal at 16 and 24 h
Description: The specificity of the activity of each caspase substrate was also verified by assays in the presence of specific inhibitors. […] Caspase-3 activity was measured by a fluorometric assay using Ac-DEVD-AFC (Acetylated-Asp-Glu-Val-Asp-7-amino-4-trifluoromethylcoumarin) (SEQ ID NO: 9) as a specific substrate for caspase-3 and Z-DEVD-CHO as a selective caspase-3 inhibitor. Caspase-8 activity was measured by a fluorometric assay using Ac-LETD-AFC (Acetylated-Leu-Glu-Thr-Asp-7-amino-4-trifluoromethylcoumarin) (SEQ ID NO: 10) as a specific substrate and Z-LETD-CHO as a selective caspase-8 inhibitor. The data are presented as relative fluorescence units (RFU).

For `CC[C@H](C)[C@H](NC(=O)[C@H](Cc1ccc(O)cc1)NC(=O)[C@@H](NC(=O)[C@H](CCCNC(=N)N)NC(=O)[C@@H](N)CC(=O)O)C(C)C)C(=O)N[C@@H](Cc1c[nH]cn1)C(=O)N1CCC[C@H]1C(=O)O` [Ang-(1-7), Asp-Arg-Val-Tyr-Ile-His-Pro], the “inhibition of PDGF- or EGF-stimulated ^3H-thymidine incorporation” value [1] is listed as “at least 50%”, the “plasma Ang-(1-7)” value ([2]; 100 μg/kg/day) is listed as 3209.5 pg/mL and 3.6 nM and the “plasma Ang-(1-7)” value [2] is listed as 49.43 pg/mL and 0.055 nM. For the same compound, the “expression of MEK5, ERK1, p21/K-ras 2B” value [3] was “reduced”, the “expression of p16^INK4a, menin, BAD, BAK, apoptotic protease activating factor 1” value [3] was “upregulated” and the pIC50 ([4]; 48 h) was 10.70. For the same compound, the maximal inhibition ([4]; ZR-75-1) was 37.2±6.1, the “^3H-thymidine incorporation over time of treatment” value ([4]; ZR-75-1, 1% FBS, daily addition of 100 nM) was “progressively reduced” and the “optimal reduction of VEGF mRNA” value [5] was “greater than 50%”. For the same compound, the “cellular levels of cAMP” value [6] was 131.9±9.7 % of basal and the “time-dependent increase in caspase-8 activity” value [7] was “about 2 fold”.
